System: 415267-285-R-J2-PDC complex spheroid viability
Assay: Anticancer human tumor 415267-285-R-J2-PDC patient-derived breast carcinoma cell line growth inhibition [POLQ]
Conditions: for IC50: curve of first compound; for viability, T/C: stronger effect = lower value
How it was run: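 PDC + HUVEC + MSC complex spheroids; POLQ inhibitors ± partner drugs; top conc. at/near clinical Cmax, else 10 microM (SN-38 1 microM), half-log dilutions; 37 degrees C, 5% CO2.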

[1] = second compound 0.0316 µM, first compound 0.00316 µM
[2] = second compound 0.0316 µM, first compound 0.01 µM
[3] = second compound 0.0316 µM, first compound 0.0316 µM
[4] = second compound 0.0316 µM, first compound 0.1 µM
[5] = second compound 0.0316 µM, first compound 0.316 µM
[6] = second compound 0.0316 µM, first compound 1 µM
[7] = second compound 0.1 µM, first compound 0.00316 µM
[8] = second compound 0.1 µM, first compound 0.01 µM
[9] = second compound 0.1 µM, first compound 0.0316 µM
[10] = second compound 0.1 µM, first compound 0.1 µM
[11] = second compound 0.1 µM, first compound 0.316 µM
[12] = second compound 0.1 µM, first compound 1 µM
[13] = second compound 0.316 µM, first compound 0.00316 µM
[14] = second compound 0.316 µM, first compound 0.01 µM
[15] = second compound 0.316 µM, first compound 0.0316 µM
[16] = second compound 0.316 µM, first compound 0.1 µM
[17] = second compound 0.316 µM, first compound 0.316 µM
[18] = second compound 0.316 µM, first compound 1 µM
[19] = second compound 1 µM, first compound 0.00316 µM
[20] = second compound 1 µM, first compound 0.01 µM
[21] = second compound 1 µM, first compound 0.0316 µM
[22] = second compound 1 µM, first compound 0.1 µM
[23] = second compound 1 µM, first compound 0.316 µM
[24] = second compound 1 µM, first compound 1 µM
[25] = second compound 3.16 µM, first compound 0.00316 µM
[26] = second compound 3.16 µM, first compound 0.01 µM
[27] = second compound 3.16 µM, first compound 0.0316 µM
[28] = second compound 3.16 µM, first compound 0.1 µM
[29] = second compound 3.16 µM, first compound 0.316 µM
[30] = second compound 3.16 µM, first compound 1 µM
[31] = second compound 10 µM, first compound 0.00316 µM
[32] = second compound 10 µM, first compound 0.01 µM
[33] = second compound 10 µM, first compound 0.0316 µM
[34] = second compound 10 µM, first compound 0.1 µM
[35] = second compound 10 µM, first compound 0.316 µM
[36] = second compound 10 µM, first compound 1 µM
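Note: spheroids exposed to compounds for one week before readout.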
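Throughout, for viability, T/C: luminescence used as stand-in measure of viable cells; 100% = DMSO vehicle control viability.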

**Q.** Which results are given for COc1cccc(OCCCN)c1-c1cc(Nc2cnc(C#N)cn2)n[nH]1 + COC1C(OC(N)=O)C(O)C(Oc2ccc3c(O)c(NC(=O)c4ccc(O)c(CC=C(C)C)c4)c(=O)oc3c2C)OC1(C)C?
**A.** IC50 (second compound 0.0316 µM): < 3.16 nM; IC50 (second compound 0.1 µM): < 3.16 nM; IC50 (second compound 0.316 µM): < 3.16 nM; IC50 (second compound 1 µM): 3.68 nM; IC50 (second compound 3.16 µM): 3.6 nM; IC50 (second compound 10 µM): 3.84 nM; viability, T/C [1]: 41.4%; viability, T/C [2]: 14.1%; viability, T/C [3]: 7.52%; viability, T/C [4]: 8.68%; viability, T/C [5]: 6.7%; viability, T/C [6]: 4.81%; viability, T/C [7]: 40.2%; viability, T/C [8]: 10.2%; viability, T/C [9]: 7.65%; viability, T/C [10]: 6.8%; viability, T/C [11]: 6.5%; viability, T/C [12]: 5.69%; viability, T/C [13]: 46.9%; viability, T/C [14]: 8.13%; viability, T/C [15]: 8.41%; viability, T/C [16]: 6.89%; viability, T/C [17]: 7.31%; viability, T/C [18]: 4.55%; viability, T/C [19]: 56.2%; viability, T/C [20]: 9.03%; viability, T/C [21]: 7.11%; viability, T/C [22]: 7.02%; viability, T/C [23]: 5.8%; viability, T/C [24]: 4.41%; viability, T/C [25]: 55.3%; viability, T/C [26]: 8.65%; viability, T/C [27]: 7.11%; viability, T/C [28]: 7.79%; viability, T/C [29]: 5.22%; viability, T/C [30]: 5.51%; viability, T/C [31]: 58.6%; viability, T/C [32]: 7.45%; viability, T/C [33]: 7.04%; viability, T/C [34]: 6.59%; viability, T/C [35]: 6.37%; viability, T/C [36]: 5.49%

**Q.** For COc1cccc(OCCCN)c1-c1cc(Nc2cnc(C#N)cn2)n[nH]1 + Nc1ccc(C#CCN(C(=O)Cc2ncc(C(F)(F)F)cc2C(F)(F)F)c2ccc(F)cc2)nn1, which IC50 (second compound 0.0316 µM) is on record?
**A.** 7.16 nM

**Q.** And the IC50 (second compound 0.1 µM)?
**A.** 6.19 nM

**Q.** What about the IC50 (second compound 0.316 µM) of the same compound?
**A.** 6.72 nM

**Q.** And the IC50 (second compound 1 µM)?
**A.** 5.96 nM

**Q.** What about the IC50 (second compound 3.16 µM) of the same compound?
**A.** 5.77 nM

**Q.** And the IC50 (second compound 10 µM)?
**A.** 5.9 nM

**Q.** What about the viability, T/C [1] of the same compound?
**A.** 99%

**Q.** And the viability, T/C [2]?
**A.** 29.9%

**Q.** What about the viability, T/C [3] of the same compound?
**A.** 6.2%

**Q.** And the viability, T/C [4]?
**A.** 5.95%

**Q.** What about the viability, T/C [5] of the same compound?
**A.** 4.32%

**Q.** What about the viability, T/C [6] of the same compound?
**A.** 4.9%

**Q.** What about the viability, T/C [7] of the same compound?
**A.** 94.9%

**Q.** And the viability, T/C [8]?
**A.** 18%

**Q.** What about the viability, T/C [9] of the same compound?
**A.** 5.46%

**Q.** What about the viability, T/C [10] of the same compound?
**A.** 5.78%

**Q.** What about the viability, T/C [11] of the same compound?
**A.** 5.23%

**Q.** And the viability, T/C [12]?
**A.** 3.98%

**Q.** What about the viability, T/C [13] of the same compound?
**A.** 119%

**Q.** What about the viability, T/C [14] of the same compound?
**A.** 13.8%

**Q.** And the viability, T/C [15]?
**A.** 5.29%

**Q.** What about the viability, T/C [16] of the same compound?
**A.** 4.56%

**Q.** What about the viability, T/C [17] of the same compound?
**A.** 4.96%

**Q.** And the viability, T/C [18]?
**A.** 4.07%

**Q.** And the viability, T/C [19]?
**A.** 101%

**Q.** And the viability, T/C [20]?
**A.** 8.35%

**Q.** What about the viability, T/C [21] of the same compound?
**A.** 5.83%

**Q.** What about the viability, T/C [22] of the same compound?
**A.** 5.25%

**Q.** What about the viability, T/C [23] of the same compound?
**A.** 5.41%

**Q.** What about the viability, T/C [24] of the same compound?
**A.** 4.11%

**Q.** And the viability, T/C [25]?
**A.** 94.9%

**Q.** And the viability, T/C [26]?
**A.** 9.02%

**Q.** And the viability, T/C [27]?
**A.** 5.49%

**Q.** And the viability, T/C [28]?
**A.** 5.19%

**Q.** What about the viability, T/C [29] of the same compound?
**A.** 6.6%

**Q.** And the viability, T/C [30]?
**A.** 4.85%

**Q.** What about the viability, T/C [31] of the same compound?
**A.** 100%

**Q.** What about the viability, T/C [32] of the same compound?
**A.** 7.29%

**Q.** And the viability, T/C [33]?
**A.** 6.73%

**Q.** And the viability, T/C [34]?
**A.** 5.13%

**Q.** And the viability, T/C [35]?
**A.** 4.64%

**Q.** What about the viability, T/C [36] of the same compound?
**A.** 4.87%

From PubChem BioAssay AID1963847 (Molecular Pharmacology Branch, DTP, NCI, 2024)
